From ChEMBL document CHEMBL4477207, “Discovery of Novel 3-Quinoline Carboxamides as Potent, Selective, and Orally Bioavailable Inhibitors of Ataxia Telangiectasia Mutated (ATM) Kinase” (J Med Chem, 2016)
Calls of active or inactive are those of the source. The calls are words filed in the database; no cut-off is given here.

Assays:
[1] = target: Phosphatidylinositol 4,5-bisphosphate 3-kinase catalytic subunit alpha isoform (Homo sapiens, UniProt P42336); test: Inhibition of human recombinant PI3Kalpha using PIP2/ATP as substrate incubated for 20 mins followed by substrate addition by Kinase Glo reagent based luminescence assay
Phosphatidylinositol 4,5-bisphosphate 3-kinase catalytic subunit alpha isoform, sequence (P42336 whole entry, canonical isoform): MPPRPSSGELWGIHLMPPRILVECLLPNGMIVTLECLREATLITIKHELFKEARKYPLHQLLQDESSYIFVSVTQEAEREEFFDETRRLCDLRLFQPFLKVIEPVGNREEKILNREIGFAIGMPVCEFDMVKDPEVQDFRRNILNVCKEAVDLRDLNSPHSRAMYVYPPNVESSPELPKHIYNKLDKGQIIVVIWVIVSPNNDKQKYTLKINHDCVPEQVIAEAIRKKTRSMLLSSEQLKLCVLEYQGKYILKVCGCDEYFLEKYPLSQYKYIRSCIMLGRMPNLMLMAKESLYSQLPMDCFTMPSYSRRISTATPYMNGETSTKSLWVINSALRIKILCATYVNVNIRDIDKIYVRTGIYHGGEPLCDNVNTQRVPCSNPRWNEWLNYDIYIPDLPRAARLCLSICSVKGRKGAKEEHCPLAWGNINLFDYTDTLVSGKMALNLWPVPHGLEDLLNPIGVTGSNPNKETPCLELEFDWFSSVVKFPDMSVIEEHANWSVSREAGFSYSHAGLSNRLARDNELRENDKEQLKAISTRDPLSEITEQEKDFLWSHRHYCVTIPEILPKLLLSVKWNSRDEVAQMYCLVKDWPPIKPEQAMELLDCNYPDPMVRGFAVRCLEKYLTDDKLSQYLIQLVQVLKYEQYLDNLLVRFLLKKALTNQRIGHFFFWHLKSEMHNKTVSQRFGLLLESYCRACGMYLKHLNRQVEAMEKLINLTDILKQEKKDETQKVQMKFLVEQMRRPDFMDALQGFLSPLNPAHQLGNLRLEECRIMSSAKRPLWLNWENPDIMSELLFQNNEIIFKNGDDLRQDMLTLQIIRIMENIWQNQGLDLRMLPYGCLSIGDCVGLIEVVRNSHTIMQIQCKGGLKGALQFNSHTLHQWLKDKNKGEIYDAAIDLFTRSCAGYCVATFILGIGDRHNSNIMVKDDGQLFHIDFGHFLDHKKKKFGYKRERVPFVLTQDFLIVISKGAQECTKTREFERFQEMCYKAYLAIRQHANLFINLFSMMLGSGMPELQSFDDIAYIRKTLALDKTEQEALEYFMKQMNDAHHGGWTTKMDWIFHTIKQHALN

Homo sapiens = organism: Homo sapiens; test: Selectivity ratio of IC50 for ATR in human HT-29 cells to IC50 for ATM in human HT-29 cells; format: cell-based
[2] = target: Phosphatidylinositol 4,5-bisphosphate 3-kinase catalytic subunit gamma isoform (Homo sapiens, UniProt P48736); test: Inhibition of human recombinant PI3Kgamma using PIP2/ATP as substrate incubated for 20 mins followed by substrate addition by Kinase Glo reagent based luminescence assay
[3] = target: Serine/threonine-protein kinase ATR (Homo sapiens, UniProt Q13535); test: Inhibition of ATR in human HT-29 cells assessed as reduction in Chk1 phosphorylation at Ser-345 residue after 60 mins in presence of 4-nitroquinoline-1-oxide by Hoechst 33258 staining based plate reader analysis; format: cell-based
Serine/threonine-protein kinase ATR, sequence (Q13535 whole entry): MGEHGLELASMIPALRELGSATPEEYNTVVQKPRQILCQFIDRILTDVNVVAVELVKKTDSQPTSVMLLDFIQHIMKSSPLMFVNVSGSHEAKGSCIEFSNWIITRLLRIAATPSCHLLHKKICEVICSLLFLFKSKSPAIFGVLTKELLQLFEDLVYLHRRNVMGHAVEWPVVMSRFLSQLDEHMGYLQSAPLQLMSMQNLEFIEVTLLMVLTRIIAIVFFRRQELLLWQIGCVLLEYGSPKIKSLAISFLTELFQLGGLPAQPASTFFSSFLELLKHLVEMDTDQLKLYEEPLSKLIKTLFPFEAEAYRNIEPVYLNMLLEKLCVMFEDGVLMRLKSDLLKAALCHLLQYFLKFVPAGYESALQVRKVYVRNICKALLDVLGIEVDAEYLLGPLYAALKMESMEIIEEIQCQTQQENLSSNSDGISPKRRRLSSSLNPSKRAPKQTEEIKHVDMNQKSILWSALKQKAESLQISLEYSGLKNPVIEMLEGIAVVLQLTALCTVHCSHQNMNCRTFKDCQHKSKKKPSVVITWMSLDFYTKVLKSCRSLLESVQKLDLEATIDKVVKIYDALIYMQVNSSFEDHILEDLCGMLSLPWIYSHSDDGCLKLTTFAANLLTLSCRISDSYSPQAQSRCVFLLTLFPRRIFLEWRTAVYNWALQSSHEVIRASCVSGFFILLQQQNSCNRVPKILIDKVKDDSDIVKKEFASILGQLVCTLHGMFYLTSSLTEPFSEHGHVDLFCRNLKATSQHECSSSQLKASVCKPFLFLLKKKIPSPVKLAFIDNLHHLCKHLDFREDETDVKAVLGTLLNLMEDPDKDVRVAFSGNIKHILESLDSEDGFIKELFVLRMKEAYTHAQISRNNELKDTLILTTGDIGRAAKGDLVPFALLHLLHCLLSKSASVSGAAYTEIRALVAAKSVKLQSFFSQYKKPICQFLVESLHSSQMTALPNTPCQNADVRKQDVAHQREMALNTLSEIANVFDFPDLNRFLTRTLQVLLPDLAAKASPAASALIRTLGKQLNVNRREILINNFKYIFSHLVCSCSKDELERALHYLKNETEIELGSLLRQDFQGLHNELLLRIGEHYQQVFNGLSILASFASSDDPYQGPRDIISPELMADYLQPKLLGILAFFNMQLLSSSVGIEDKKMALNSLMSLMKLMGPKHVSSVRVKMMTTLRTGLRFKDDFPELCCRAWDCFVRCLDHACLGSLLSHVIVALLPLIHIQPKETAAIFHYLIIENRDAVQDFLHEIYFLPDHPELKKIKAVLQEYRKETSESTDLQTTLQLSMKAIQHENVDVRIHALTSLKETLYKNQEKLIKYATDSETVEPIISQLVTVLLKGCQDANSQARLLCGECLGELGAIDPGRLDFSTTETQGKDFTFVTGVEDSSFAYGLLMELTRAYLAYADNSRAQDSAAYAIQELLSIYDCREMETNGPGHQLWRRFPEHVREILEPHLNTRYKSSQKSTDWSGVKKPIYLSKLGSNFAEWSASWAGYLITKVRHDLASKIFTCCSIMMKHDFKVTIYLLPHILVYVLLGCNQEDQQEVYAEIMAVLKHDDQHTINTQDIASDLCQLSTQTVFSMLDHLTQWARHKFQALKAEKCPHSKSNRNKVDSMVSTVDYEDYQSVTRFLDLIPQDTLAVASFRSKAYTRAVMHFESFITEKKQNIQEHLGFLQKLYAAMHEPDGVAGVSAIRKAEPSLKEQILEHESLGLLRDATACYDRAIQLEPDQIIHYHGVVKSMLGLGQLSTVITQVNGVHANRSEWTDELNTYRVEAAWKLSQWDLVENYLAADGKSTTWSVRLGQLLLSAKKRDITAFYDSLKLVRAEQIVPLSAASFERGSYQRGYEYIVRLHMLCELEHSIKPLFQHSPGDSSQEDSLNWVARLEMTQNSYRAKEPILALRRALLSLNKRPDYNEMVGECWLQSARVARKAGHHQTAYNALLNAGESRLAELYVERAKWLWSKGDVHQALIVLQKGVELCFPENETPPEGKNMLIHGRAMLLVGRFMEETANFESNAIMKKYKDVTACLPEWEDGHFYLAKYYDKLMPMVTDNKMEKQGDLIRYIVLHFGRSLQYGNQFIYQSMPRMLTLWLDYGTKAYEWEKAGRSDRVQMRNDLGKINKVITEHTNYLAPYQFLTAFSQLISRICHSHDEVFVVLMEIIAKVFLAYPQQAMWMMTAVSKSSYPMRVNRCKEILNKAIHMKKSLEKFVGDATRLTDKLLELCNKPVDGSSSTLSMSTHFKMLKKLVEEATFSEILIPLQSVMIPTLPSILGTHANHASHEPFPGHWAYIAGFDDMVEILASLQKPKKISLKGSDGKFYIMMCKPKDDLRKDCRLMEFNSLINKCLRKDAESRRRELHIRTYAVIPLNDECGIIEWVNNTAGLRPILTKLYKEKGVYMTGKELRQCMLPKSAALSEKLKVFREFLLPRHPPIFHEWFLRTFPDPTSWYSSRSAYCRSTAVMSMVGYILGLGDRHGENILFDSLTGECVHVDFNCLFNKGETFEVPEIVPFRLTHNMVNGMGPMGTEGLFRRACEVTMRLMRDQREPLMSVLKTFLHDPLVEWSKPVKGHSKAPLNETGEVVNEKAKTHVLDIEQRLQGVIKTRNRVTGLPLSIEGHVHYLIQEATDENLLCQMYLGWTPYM

in vitro [4] = settings: rat, hepatocytes
in vitro [5] = settings: human, hepatocytes
[6] = target: DNA-dependent protein kinase catalytic subunit (Homo sapiens, UniProt P78527); test: Inhibition of DNAPK (unknown origin) using p53-based peptide substrate preincubated for 5 min prior to ATP addition
[7] = target: T1, Serine-protein kinase ATM (Homo sapiens, UniProt Q13315); test: Inhibition of ATM phosphorylation at Ser-1981 residue in human HT-29 cells incubated for 1 hr followed by X-ray irradiation by Hoechst staining based fluorescence plate reader analysis; format: cell-based
[8] = target: T1, Serine-protein kinase ATM; test: Inhibition of ATM (unknown origin) using p53 as substrate incubated for 30 mins followed by substrate addition measured after 2 hrs in presence of ATP by HTRF method
[9] = target: Phosphatidylinositol 4,5-bisphosphate 3-kinase catalytic subunit beta isoform (Homo sapiens, UniProt P42338); test: Inhibition of human recombinant PI3Kbeta using PIP2/ATP as substrate incubated for 20 mins followed by substrate addition by Kinase Glo reagent based luminescence assay
Phosphatidylinositol 4,5-bisphosphate 3-kinase catalytic subunit beta isoform, sequence (P42338 whole entry, canonical isoform): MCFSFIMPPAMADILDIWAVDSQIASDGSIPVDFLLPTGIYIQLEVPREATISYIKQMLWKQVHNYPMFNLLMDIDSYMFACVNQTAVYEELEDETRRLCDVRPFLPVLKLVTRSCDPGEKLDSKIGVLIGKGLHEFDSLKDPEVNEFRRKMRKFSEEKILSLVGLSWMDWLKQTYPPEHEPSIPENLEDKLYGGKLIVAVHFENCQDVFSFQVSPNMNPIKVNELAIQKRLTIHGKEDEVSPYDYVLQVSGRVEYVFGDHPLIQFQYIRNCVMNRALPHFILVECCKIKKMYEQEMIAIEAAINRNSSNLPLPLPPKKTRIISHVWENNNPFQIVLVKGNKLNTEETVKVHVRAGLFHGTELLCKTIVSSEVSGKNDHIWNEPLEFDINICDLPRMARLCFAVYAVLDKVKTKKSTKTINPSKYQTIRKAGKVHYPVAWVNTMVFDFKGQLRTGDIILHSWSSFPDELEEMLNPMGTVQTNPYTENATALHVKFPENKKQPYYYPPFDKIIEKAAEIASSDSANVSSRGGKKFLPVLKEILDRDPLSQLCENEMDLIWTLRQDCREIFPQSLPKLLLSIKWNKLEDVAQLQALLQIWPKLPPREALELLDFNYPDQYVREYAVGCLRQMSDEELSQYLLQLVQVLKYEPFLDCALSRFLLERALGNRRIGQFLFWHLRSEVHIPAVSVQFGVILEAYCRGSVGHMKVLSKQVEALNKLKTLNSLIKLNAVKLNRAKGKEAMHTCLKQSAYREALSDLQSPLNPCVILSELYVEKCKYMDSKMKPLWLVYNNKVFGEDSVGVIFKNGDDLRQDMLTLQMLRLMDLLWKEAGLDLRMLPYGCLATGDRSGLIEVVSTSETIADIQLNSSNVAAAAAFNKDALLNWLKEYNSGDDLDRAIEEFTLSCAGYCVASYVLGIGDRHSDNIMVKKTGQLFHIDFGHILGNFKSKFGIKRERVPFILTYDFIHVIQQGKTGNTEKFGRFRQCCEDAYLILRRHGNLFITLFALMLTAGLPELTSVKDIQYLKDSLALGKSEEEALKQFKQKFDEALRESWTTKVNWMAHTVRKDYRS

physchem = settings: octanol/buffer, pH 7.4
[10] = target: Serine/threonine-protein kinase mTOR (Homo sapiens, UniProt P42345); test: Inhibition of C-terminal FLAG-tagged recombinant mTOR (1362 to 2549 residues) (unknown origin) using Biotin-Ahx-Lys-Lys-Ala-Asn-Gln-Val-Phe-Leu-Gly-Phe-Thr-Tyr-Val-Ala-Pro-Ser-Val-Leu-Glu-Ser-Val-Lys-Glu-NH2 as substrate after 90 mins by AlphaScreen assay
[11] = target: Voltage-gated inwardly rectifying potassium channel KCNH2 (Homo sapiens, UniProt Q12809)
[12] = target: T1, Serine-protein kinase ATM; test: Inhibition of ATM in human HT-29 cells assessed as reduction in ATM phosphorylation at Ser-1981 residue up to 30 uM incubated for 1 hr followed by X-ray irradiation by Hoeschst staining based plate reader analysis; format: cell-based
SW-620 = test: Antitumor activity against human SW620 cells xenografted in immunocompromised athymic Swiss nude mouse assessed as tumor growth inhibition at 50 mg/kg, ip once in a week for 3 weeks regime starting day 1 post xenograft; format: functional, organism-based
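Wherever logD is given: determined by the shake flask method.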

Row | SMILES | IC50 [1] [nM] | Ratio IC50 (Homo sapiens) | IC50 [2] [nM] | IC50 [3] [nM] | hepatocyte CLint at 1.5 h (in vitro [4]) [µL/min/1e6 cells] | hepatocyte CLint at 1.5 h (in vitro [5]) [µL/min/1e6 cells] | IC50 [6] [nM] | IC50 [7] [nM] | IC50 [8] [nM] | IC50 [9] [nM] | logD (physchem) | IC50 [10] [nM] | IC50 [11] [nM] | inhibition [12] | TGI (SW-620)
1 | C[C@@H](Nc1c(C(N)=O)cnc2ccc(-c3cccnc3)cc12)c1ccc(Cl)cc1 | 8 | > 10 | 45 | 1900 | 70 | 11 | 5 | 109 | 2 | 21 | > 4.3 | 181 |  |  | 
2 | NC(=O)c1cnc2ccc(-c3cccnc3)cc2c1NC1CCCC1 |  |  |  | 1200 | 65 | 23 |  | 137 |  |  | 3.6 |  | 570 |  | 
3 | C[C@H](Nc1c(C(N)=O)cnc2ccc(-c3cccnc3)cc12)c1ccn(C)n1 |  |  |  | 640 | 31 | 10 |  | 124 |  |  | 2.5 |  | 11000 |  | 
4 | CCC(CC)CNc1c(C(N)=O)cnc2ccc(-c3ccc(CS(C)(=O)=O)cc3)cc12 |  |  |  | > 30000 | 210 | 23 |  | 70 |  |  | 3.5 |  | 2100 |  | 
5 | Cc1ccc([C@@H](C)Nc2c(C(N)=O)cnc3ccc(C#N)cc23)cc1 |  |  |  |  |  |  |  |  |  |  |  |  |  | inactive | 
6 | O=c1cc(-c2cccc3c2Sc2ccccc2S3)oc(N2CCOCC2)c1 [KU-55933] | 458 |  | > 1000 | > 30000 | 230 | 33 |  |  |  | 133 | 4 | 5580 |  |  | 
7 | NC(=O)c1cnc2ccc(-c3cccnc3)c(F)c2c1NC1CCOCC1 |  |  |  | > 30000 | 11 | < 3 |  | > 30000 |  |  | 1.5 |  | 13000 |  | 
8 | CCC(CC)CNc1c(C(N)=O)c(C)nc2ccc(-c3cccnc3)cc12 |  |  |  | > 30000 | 43 | 6 |  | > 30000 |  |  | 2.7 |  | 680 |  | 
9 | C[C@@H]1CN(CC(=O)Nc2ccc3c(c2)Cc2cccc(-c4cc(=O)cc(N5CCOCC5)o4)c2S3)C[C@H](C)O1 | 452 |  | > 1000 |  | 22 | 13 |  |  |  | 2140 | 3.6 | 6550 |  |  | 
10 | C[C@@H](Nc1c(C(N)=O)cnc2ccc(-c3cccnc3)cc12)C1CCOCC1 |  |  |  | 3500 | 46 | 14 |  | 730 |  |  | 2.3 |  | 4300 |  | 
11 | C[C@@H](Nc1c(C(N)=O)cnc2ccc(-c3cccnc3)cc12)c1ccn(C)n1 |  |  |  | > 18000 | 120 | 3.4 |  | 1130 |  |  | 2.3 |  | 2800 |  | 
12 | CCc1c2c(nc3ccc(OC(=O)N4CCC(N5CCCCC5)CC4)cc13)-c1cc3c(c(=O)n1C2)COC(=O)[C@]3(O)CC |  |  |  |  |  |  |  |  |  |  |  |  |  |  | Active
